We go through ten compounds from paper PMC6896446, “Design, synthesis and molecular modelling studies of some pyrazole derivatives as carbonic anhydrase inhibitors” (Journal of Enzyme Inhibition and Medicinal Chemistry, 2019).

Data set [1] deals with T1, hCA II (Homo sapiens, UniProt P00918).
T1 construct: The hCA I and II isoenzymes used here were purified from human blood as previously described; from tissue; host or cells: human blood
In words: hCA II inhibition, esterase activity method (4-nitrophenylacetate). The format is biochemical.
Description: Different inhibitor concentrations were used and all compounds were tested in triplicate at each concentration used.
Human CA I and II isozymes were purified by one step chromatography technique and the activity of the effluents was determined by the hydratase method, using CO2 as substrate and further kinetic studies were performed using the esterase activity method, using 4-nitrophenyl acetate (NPA) as substrate.[21]

The target of data set [2] is T2, hCA I (Homo sapiens, UniProt P00915).
T2 construct: The hCA I and II isoenzymes used here were purified from human blood as previously described; from tissue; host or cells: human blood
The data set can be described thus: hCA I inhibition, esterase activity method (4-nitrophenylacetate). The format is biochemical. The conditions noted are these: for pIC50: against hCA I.
Description: The enzymatic reaction contained 1.4 ml 0.05 M Tris-SO4 buffer (pH 7.4), 1 ml 3 mM 4-nitrophenylacetate, 0.5 ml H2O and 0.1 ml enzyme solution, in a total volume of 3.0 ml.[24] […] Different inhibitor concentrations were used and all compounds were tested in triplicate at each concentration used. […] An Activity% – [Inhibitor] graph was drawn for each inhibitor.[25] […] The catalytic activity of these enzymes was calculated from Lineweaver-Burk plots, as reported previously, and represent the mean from at least three different determinations.
The inhibitory effects of all the synthesised compounds were investigated for the first time against hCA isozymes: hCA I and hCA II. Human CA I and II isozymes were purified by one step chromatography technique and the activity of the effluents was determined by the hydratase method, using CO2 as substrate and further kinetic studies were performed using the esterase activity method, using 4-nitrophenyl acetate (NPA) as substrate.[21]

Where [3] appears, read: esterase method, 4-nitrophenylacetate, pH 7.4, 25 °C, mean from at least three determinations, read-out: Ki hCA I.
The mark [4] stands for this setting: esterase method, 4-nitrophenylacetate, pH 7.4, 25 °C, mean from at least three determinations, read-out: Ki hCA II.

Molecules are shown by their SMILES. pIC50, pKi: −log10 of the molar value. Like-named read-outs stand apart in the source and are kept apart here.

T2 sequence (P00915 whole entry): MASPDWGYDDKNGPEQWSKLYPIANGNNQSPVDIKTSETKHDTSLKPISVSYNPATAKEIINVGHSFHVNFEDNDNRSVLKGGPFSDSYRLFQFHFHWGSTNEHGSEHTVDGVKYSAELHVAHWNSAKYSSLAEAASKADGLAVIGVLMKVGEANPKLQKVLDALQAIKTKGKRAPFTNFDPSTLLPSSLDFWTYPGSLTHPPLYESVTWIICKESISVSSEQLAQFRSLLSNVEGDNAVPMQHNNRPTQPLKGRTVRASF

In turn, `COc1cc(/C=C/C(=O)c2ccc(N)cc2)cc(OC)c1OC` [Compound 1, (E)-1-(4-aminophenyl)-3-(3,4,5-trimethoxyphenyl)prop-2-en-1-one] had a negative-log Ki (pKi) in data set [1] of 7.47.

Consider `COc1cc(/C=C/C(=O)c2ccc(Br)cc2)cc(OC)c1OC` [Compound 2, (E)-1-(4-bromophenyl)-3-(3,4,5-trimethoxyphenyl)prop-2-en-1-one], for which the pKi was 8.10 in data set [2] (setting [3]) and 7.77 in data set [1] (setting [4]).

As for `COc1cc(/C=C/C(=O)c2ccc(C)cc2)cc(OC)c1OC` [Compound 3, (E)-1-p-tolyl-3-(3,4,5-trimethoxyphenyl)prop-2-en-1-one], the pKi in data set [2] (setting [3]) is 7.77; in data set [1] (setting [4]), 7.17.

`COc1ccc(/C=C/C(=O)c2ccc(N)cc2)cc1OC` [Compound 4, (E)-1-(4-aminophenyl)-3-(3,4-dimethoxyphenyl)prop-2-en-1-one]: the pKi in data set [2] (setting [3]) is 8.01; in data set [1] (setting [4]), 7.67.

Consider `CN(C)c1ccc(/C=C/C(=O)c2ccc(O)cc2)cc1` [Compound 5, (E)-3-(4-(dimethylamino)phenyl)-1-(4-hydroxyphenyl)prop-2-en-1-one], for which the results for the negative-log Ki (pKi) in data set [2] and in data set [1] were 8.08 and 7.93, respectively.

In data set [2], `COc1cc(C2CC(c3ccc(N)cc3)=NN2C(N)=S)cc(OC)c1OC` (stereo not drawn) [Compound 6, 3-(4-Aminophenyl)-5-(3,4,5-trimethoxyphenyl)-4,5-dihydro-1H-pyrazole-1-carbothioamide] showed a negative-log IC50 (pIC50) of 7.61 to 7.62. Further, the negative-log Ki (pKi) in data set [2] (setting [3]) is 7.91.

Turning to `COc1cc(C2CC(c3ccc(Br)cc3)=NN2C(N)=S)cc(OC)c1OC` (stereo not drawn) [Compound 7, 3-(4-Bromophenyl)-5-(3,4,5-trimethoxyphenyl)-4,5-dihydro-1H-pyrazole-1-carbothioamide], the pKi in data set [2] (setting [3]) is 7.90.

With `COc1cc(C2CC(c3ccc(C)cc3)=NN2C(N)=S)cc(OC)c1OC` (stereo not drawn) [Compound 8, 3-p-Tolyl-5-(3,4,5-trimethoxyphenyl)-4,5-dihydro-1H-pyrazole-1-carbothioamide], the figures for the pKi in data set [2] (setting [3]) and in data set [1] (setting [4]) were 7.96 and 7.58, respectively.

As for `COc1ccc(C2CC(c3ccc(N)cc3)=NN2C(N)=S)cc1OC` (stereo not drawn) [Compound 9, 3-(4-Aminophenyl)-5-(3,4-dimethoxyphenyl)-4,5-dihydro-1H-pyrazole-1-carbothioamide], the values for the pKi in data set [2] and in data set [1] (setting [4]) were 8.29 and 7.69, respectively.

Compound `CN(C)c1ccc(C2CC(c3ccc(O)cc3)=NN2C(N)=S)cc1` (stereo not drawn) [Compound 10, 5-(4-(Dimethylamino)phenyl)-3-(4-hydroxyphenyl)-4,5-dihydro-1H-pyrazole-1-carbothioamide] yielded a melting point of 180 to 182 °C. The same compound had a pIC50 in data set [2] of 7.61 to 7.62. Further, in data set [2] (setting [3]), the pKi is 7.92. Further, the “selectivity ratio (SR) hCA I versus hCA II” value in data set [2] (hCA I versus hCA II) turned out to be 3.46. Further, the pKi in data set [1] (setting [4]) is 7.38.

What is called pKi is −log10 of the Ki, conventionally taken in molar units. In general, pIC50 refers to −log10 of the IC50, conventionally taken in molar units. A high value points to a low IC50. By melting point is commonly meant the temperature of the solid-liquid transition.
